Measured values as given in US11214803B2, “Modulators of YAP1 expression” (Ionis Pharmaceuticals, Inc., priority 2019, dated 2022).
Strand notation (5' to 3'): a small letter for the sugar, then the base; units joined by * are phosphorothioate-linked, units joined directly phosphodiester-linked; [ ] holds rarer units or linkages, { } end groups; capitals alone tell only the bases. k = constrained ethyl (cEt); [5mC] = 5-methylcytosine; d = 2'-deoxy (DNA)

Key:
[1] = Tolerability in CD-1 mice, plasma chemistry markers (Example 18); assay type: in vivo; details: male CD-1 mice, 50 mg/kg s.c. twice a week (total of 9 treatments), day 34
Experimental: (§1) CD-1 mice were treated with modified oligonucleotides selected from studies described above and evaluated for changes in the levels of various plasma chemistry markers.
(§2) Groups of four male CD-1 mice at 5-6 weeks of age (obtained from Charles River) were injected subcutaneously twice a week for four weeks (for a total of 9 treatments) with 50 mg/kg of modified oligonucleotides. One group of male CD-1 mice was injected with PBS. Mice were euthanized on day 34 post start of treatment (24 hours following the final administration).

[2] = Tolerability in Sprague-Dawley rats, body and organ weights (Example 20); assay type: in vivo; details: male Sprague-Dawley rats, 50 mg/kg s.c. weekly for 6 weeks (7 doses); for Kidney weight / Liver weight / Spleen weight: end of study; for body weight: terminal, prior to necropsy
Experimental: Terminal body weight was measured prior to necropsy. Ionis oligonucleotides that caused any changes in organ weights outside the expected range for modified oligonucleotides were excluded from further studies.

[3] = Tolerability in CD-1 mice, body and organ weights (Example 18); assay type: in vivo; details: male CD-1 mice, 50 mg/kg s.c. twice a week (total of 9 treatments), end of study (day 34)
Experimental: as §2
(§3) Body weights of CD-1 mice were measured at the end of the study, and the average body weight for each group is presented in the table below. Modified oligonucleotides that caused any changes in organ weights outside the expected range for modified oligonucleotides were excluded from further studies.

[4] = Tolerability in Sprague-Dawley rats, kidney function, urine total protein to creatinine ratio (Example 20); details: male Sprague-Dawley rats, 50 mg/kg subcutaneously weekly for 6 weeks (total 7 doses)
Experimental: Male Sprague-Dawley rats were maintained on a 12-hour light/dark cycle and fed ad libitum with Purina normal rat chow. Groups of 4 Sprague-Dawley rats each were weekly injected subcutaneously with 50 mg/kg of Ionis oligonucleotide for 6 weeks (total 7 doses). Forty-eight hours after the last dose, the rats were euthanized; and organs, urine and plasma were harvested for further analysis.
To evaluate the effect of Ionis oligonucleotides on kidney function, urinary levels of total protein and creatinine were measured using an automated clinical chemistry analyzer (Hitachi Olympus AU400c, Melville, N.Y.).

Yap1 mRNA [5] = assay: Dose-dependent inhibition of human Yap1 in A-431 cells (Example 8, 10,000 cells per well, RTS4814); assay type: cell-based; details: free uptake, approximately 48 hours, RTS4814; for Yap1 mRNA, % UTC: A-431 cells, 10,000 cells per well
Summary of the method: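 Yap1 mRNA, normalized to RIBOGREEN total RNA and expressed as % untreated control, was read with RTS4814 about 48 h after free-uptake oligonucleotide treatment of A-431 cells at 10,000 cells/well. IC50 derived by linear regression of log/linear data.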

Yap1 mRNA [6] = assay: Inhibition of human Yap1 mRNA in SNU449 hepatocellular carcinoma xenograft tumors (Example 26); assay type: in vivo; details: SNU449 xenografts in NSG mice, 50 mg/kg twice weekly for five days, relative to PBS treated animals
Experimental: A SNU449 hepatocellular carcinoma xenograft tumor model was used to evaluate activity of modified oligonucleotides targeted to human Yap1. Ten million SNU449 cells in 30% matrigel were implanted subcutaneously into the flanks of female NOD Cg-Prkdcscid ll2rgtm1Wjl/SzJ (NSG) mice (from Jackson Laboratory) at 4-6 weeks of age. When tumors reached an average volume of 100 mm^3, approximately two weeks post-implantation, groups of four mice each were administered at 50 mg/kg twice weekly with modified oligonucleotides for five days. Tumors were collected and tested for Yap1 mRNA knockdown by RT-qPCR. Yap1 mRNA levels were measured as previously described using the Human Yap1 primer-probe set RTS4814. Yap1 mRNA levels were normalized to actin-beta content, as measured by primer probe set RTS5002. Results are presented in the tables below as percent control of the amount of Yap1 mRNA relative to PBS treated animals (% control).

[7] = Tolerability in Sprague-Dawley rats, plasma chemistry markers (Example 20); assay type: in vivo; details: male Sprague-Dawley rats, 50 mg/kg s.c. weekly for 6 weeks (7 doses), 48 hours after last dose
Experimental: Sprague-Dawley rats are a multipurpose model used for safety and efficacy evaluations. The rats were treated with Ionis modified oligonucleotides from the studies described in the Examples above and evaluated for changes in the levels of various plasma chemistry markers.

[8] = Tolerability in CD-1 mice, body and organ weights (Example 17); assay type: in vivo; details: male CD-1 mice, 50 mg/kg s.c. twice a week for four weeks (8 treatments), end of study (day 27)
Experimental: as §2, with “4-5” for “5-6”, “8” for “9”, “27” for “34”, “hrs” for “hours”
as §3

[9] = Tolerability in CD-1 mice, plasma chemistry markers (Example 17); assay type: in vivo; details: male CD-1 mice, 50 mg/kg s.c. twice a week for four weeks (8 treatments), day 27
Experimental: as §1
as §2, with “4-5” for “5-6”, “8” for “9”, “27” for “34”, “hrs” for “hours”

[10] = Tolerability in CD-1 mice, body and organ weights (Example 16); assay type: in vivo; details: male CD-1 mice, 50 mg/kg s.c. twice a week for four weeks (8 treatments), end of study (day 27)
Experimental: as §2, with “4-5” for “5-6”, “8” for “9”, “27” for “34”, “hrs” for “hours”
as §3

Yap1 mRNA [11] = assay: Dose-dependent inhibition of human Yap1 in SNU-449 cells (Example 9, RTS36584); assay type: cell-based; details: free uptake; for % UTC (Yap1 mRNA): approximately 48 hours
Summary of the method: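 Read-out was Yap1 mRNA (primer-probe RTS36584) normalised to total RNA by RIBOGREEN, given as % of untreated cells, with IC50 fitted by linear regression of log/linear data. Oligonucleotides were dosed by free uptake to SNU-449 cells, 10,000/well, for ~48 h.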

[12] = Tolerability in CD-1 mice, plasma chemistry markers (Example 16); assay type: in vivo; details: male CD-1 mice, 50 mg/kg s.c. twice a week for four weeks (8 treatments), day 27
Experimental: as §1
as §2, with “4-5” for “5-6”, “8” for “9”, “27” for “34”, “hrs” for “hours”

1074755 (k[5mC]*kA*k[5mC]*dT*dT*dT*dT*dA*d[5mC]*dA*dT*dT*dA*kG*kG*kA; antisense) [compound 1074755]
ALT [1]: 88 U/L | AST [1]: 104 U/L | BUN [1]: 22 mg/dL | TBIL [1]: 0.21 mg/dL | Kidney weight [2]: 3.3 g | Liver weight [2]: 16 g | Spleen weight [2]: 2.1 g | body weight [2]: 357 g | Kidney weight [3]: 0.61 g | Liver weight [3]: 2.27 g | Spleen weight [3]: 0.19 g | body weight [3]: 39 g | URINE P/C ratio (total protein to creatinine ratio) [4]: 5 | Yap1 mRNA, % UTC (Yap1 mRNA [5]; 31.3 nM): 28 % UTC | Yap1 mRNA, % UTC (Yap1 mRNA [5]; 125.0 nM): 9 % UTC | Yap1 mRNA, % UTC (Yap1 mRNA [5]; 500.0 nM): 5 % UTC | Yap1 mRNA, % UTC (Yap1 mRNA [5]; 2000.00 nM): 3 % UTC | IC50 (Yap1 mRNA [5]; A-431 cells, linear regression on log/linear plot): < 20 nM | Yap1 mRNA in tumors, % control (Yap1 mRNA [6]): 70 % control | ALB [7]: 2.99 g/dL | ALT [7]: 57 U/L | AST [7]: 97 U/L | BUN [7]: 29 mg/dL | TBIL [7]: 0.12 mg/dL

1097224 (k[5mC]*kT*k[5mC]*dT*dT*dA*dT*dA*dT*dG*dG*dT*dT*kT*kT*kG; antisense) [compound 1097224]
Kidney weight [2]: 4.5 g | Liver weight [2]: 13 g | Spleen weight [2]: 1.4 g | body weight [2]: 316 g | URINE P/C ratio (total protein to creatinine ratio) [4]: 87 | Kidney weight [8]: 0.54 g | Liver weight [8]: 1.93 g | Spleen weight [8]: 0.16 g | body weight [8]: 37 g | ALT [9]: 39 U/L | AST [9]: 78 U/L | BUN [9]: 21 mg/dL | TBIL [9]: 0.09 mg/dL | ALB [7]: 1.61 g/dL | ALT [7]: 31 U/L | AST [7]: 51 U/L | BUN [7]: 86 mg/dL | TBIL [7]: 0.07 mg/dL

1076187 (kG*kA*kT*dT*dT*dA*dG*dG*dA*dT*dG*d[5mC]*dA*kT*kG*kG; antisense) [compound 1076187]
Kidney weight [2]: 3.0 g | Liver weight [2]: 17 g | Spleen weight [2]: 1.7 g | body weight [2]: 344 g | Kidney weight [10]: 0.56 g | Liver weight [10]: 1.95 g | Spleen weight [10]: 0.14 g | body weight [10]: 34 g | URINE P/C ratio (total protein to creatinine ratio) [4]: 5 | % UTC (Yap1 mRNA) (Yap1 mRNA [11]; 31.3 nM): 68 % UTC | % UTC (Yap1 mRNA) (Yap1 mRNA [11]; 125.0 nM): 46 % UTC | % UTC (Yap1 mRNA) (Yap1 mRNA [11]; 500.0 nM): 24 % UTC | % UTC (Yap1 mRNA) (Yap1 mRNA [11]; 2000.00 nM): 12 % UTC | IC50 (Yap1 mRNA [11]; linear regression on a log/linear plot): 100 nM | ALB [7]: 2.91 g/dL | ALT [7]: 54 U/L | AST [7]: 113 U/L | BUN [7]: 21 mg/dL | TBIL [7]: 0.10 mg/dL | ALT [12]: 57 U/L | AST [12]: 90 U/L | Albumin [12]: 2.3 g/dL | BUN [12]: 20 mg/dL | TBIL [12]: 0.18 mg/dL
